Experimental data from patent US7449495B2, “Retinoid derivatives with antiangiogenic, antitumoral and proapoptotic activities” (Sigma-Tau Industrie Farmaceutiche Riunite S.p.A., priority 2001, dated 2008).

How the values were obtained:
[1] = tested on: Human colon adenocarcinoma LoVo; test: Cytotoxicity test (sulphorodamine B), LoVo; assay type: cell-based; conditions: 24 h incubation, survival 48 h after removal, read-out: IC50
Text: (§1) Different cell lines deriving from solid tumors were also used. • 1. Human prostate carcinoma PC3 and DU145. These cell lines were maintained in RPMI 1640 medium containing 10% FCS, 1% sodium pyruvate and 1% glutamine; • 2. Human colon adenocarcinoma LoVo. This cell line was maintained in HAM's F-12 medium, containing 10% FCS and 1% glutamine. • 3. Human ovarian carcinoma such as A2780 and A2780/Dx, sensitive and resistant to drugs, respectively (doxorubicin, taxol, etoposide, vincristine); IGROV-1 and IGROV-1/Pt, sensitive and resistant to platinum-based chemotherapy, respectively, were maintained in RPMI 1640 medium containing 10% FCS, 1% sodium pyruvate and 1% glutamine; • 4. Human melanoma MeWo and MeS 2.21, glioblastoma GBM, no small cell lung carcinomas A431, NCI—H460, osteosarcomas SAOS and U2OS were maintained in RPMI 1640 medium containing 10% FCS, 1% sodium pyruvate and 1% glutamine.
(§2) The cytotoxicity tests were carried out using NB4 or HL-60 cells in suspension (10000/well). The cells were seeded in a volume of 250 μl in 96 well plates and incubated for 24 hours at 37° C. […] The optical density was measured using a Multiskan spectrophotometer at 540 nm. […]
(§3) Cell survival was determined by incubation with ST1926 for 24 hours, 48 hours after the removal of the compound. […]

[2] = tested on: Human ovarian carcinoma A2780; test: Cytotoxicity test (sulphorodamine B), A2780; assay type: cell-based; conditions: 24 h incubation, survival 48 h after removal
Text: as §1, §2, §3

[3] = tested on: Human ovarian carcinoma A2780/Dx (drug resistant); test: Cytotoxicity test (sulphorodamine B), A2780/Dx; assay type: cell-based; conditions: 24 h incubation, survival 48 h after removal
Text: as §1, §2, §3

Human melanoma MeWo = test: Cytotoxicity test (sulphorodamine B), MeWo; assay type: cell-based; conditions: 24 h incubation, survival 48 h after removal
Text: as §1, §2, §3

[4] = tested on: human ovarian carcinoma A2780; test: Antitumoral activity in human ovarian carcinoma model A2780; assay type: in vivo, CD1 nu/nu mice; conditions: qdx5x3w
Procedure: The human ovarian carcinoma cells A2780, A2780/Dx and NCIH460 were maintained in RPMI-1640 containing 10% FCS, 2 mM glutamine, 50 μg/ml gentamicin, at 37° C. in a humidified atmosphere containing 5% CO2. The cells were trypsinised, collected in complete medium, centrifuged at approx. 1100 rpm for 10 minutes and the precipitate resuspended in Hank's 199 Medium; this operation was carried out twice. The cells were resuspended in Hank's 199 Medium at a density of 20×10^6/ml and 0.1 ml (equal to 2×10^6 cells/mouse) were injected s.c. into the right flank of CD1 nu/nu 6 week-old, female mice.
The ST1926 solution was prepared immediately before use and solubilised in cremophor:ethanol 1:1 and subsequently diluted 1:4 in buffered saline solution. The animal treatments were administered in a volume of 10 ml/kg. The treatment protocol for ST1926 at different doses was for 5 consecutive days (qd×5), beginning one day following tumor cell inoculation and repeated for 3 cycles. Measurements of tumor dimensions were performed using a digital calliper (Vernier Caliper) twice weekly, from the time in which the mass was measurable. The tumor mass was evaluated from the size of the two principal dimensions (length and breadth), expressed in mm, applying the formula (length×breadth^2)/2, that is, the tumor volume in mm3. For each experimental group, the percentage of tumor volume inhibition was calculated (TVI %), with respect to the control, namely (100−(T/C %). TVI was evaluated 2 days after the final administration of ST1926.
The mice were measured until the control group tumors had reached a weight of 2 g, then the mice were sacrificed by cervical dislocation.
A comparison between the TVI values obtained for each group was performed using the non parametric Mann Whitney test for non-paired data, using the Instat software from GraphPad inc.
The mice were weighed prior to each treatment, firstly, so as to be able to administer the correct quantity of substance based on the possible changes in weight observed throughout the course of administration of the drug, and also to record the maximum weight loss throughout the treatment (BWL % max).

How did the IC50 [1] turn out when `O=C(O)/C=C/c1ccc(-c2ccc(O)c(C34CC5CC(CC(C5)C3)C4)c2)cc1` [ST1926, E-4-(3-(1-adamantyl)-4-hydroxyphenyl)cinnamic acid] was run?
Its IC50 is 240 nM.

And the IC50 [2]?
Its IC50 is 100 nM.

What about the IC50 [3] of the same compound?
The IC50 was 200 nM.

What about the IC50 (Human melanoma MeWo) of the same compound?
Its IC50 is 230 nM.

And the “BWL % Max” value ([4]; A2780, 5 mg/kg p.o.)?
Its value is 3%.

What about the Lethality ([4]; A2780, 5 mg/kg p.o.) of the same compound?
The Lethality was 0/8.

What about the “TVI % ± SE” value ([4]; A2780, 5 mg/kg p.o.) of the same compound?
The value was “*34 ± 8%”.

And the “BWL % Max” value ([4]; A2780, 10 mg/kg p.o.)?
Its value is 5%.

What about the Lethality ([4]; A2780, 10 mg/kg p.o.) of the same compound?
The Lethality was 0/8.

And the “TVI % ± SE” value ([4]; A2780, 10 mg/kg p.o.)?
Its value is “*39 ± 5%”.
